The term IC50 denotes the point on the concentration scale where inhibition reaches its midpoint.

Structures are written as SMILES. A value given as a limit tells only on which side of the number the result lay.

This is an account of results in patent US20240358689A1, “Modulators Of The Beta-3 Adrenergic Receptor Useful For The Treatment Or Prevention Of Renal Cystic Disease and Cardiorenal Syndrome” (Arena Pharmaceuticals, Inc., priority 2021, published 2024).

The experiment has as its target T1, Beta-3 Adrenergic Receptor (Homo sapiens, UniProt P13945).
T1 construct: expressed in transfected cells; host or cells: CHO-K1
In words: Homogeneous Time-Resolved Fluorescence (HTRF) cAMP antagonist assay. Conditions: Beta-3 Adrenergic Receptor IC50 Values, isoproterenol at EC90. In kind it is cell-based. The protocol:
Example 1: IC50 Determinations in Homogeneous Time-Resolved Fluorescence (HTRF®) cAMP Antagonist Assays
HTRF cAMP assays were performed according to manufacturer's instructions (Cisbio, cAMP Dynamic 2 Assay Kit; #62AM4PEJ). CHO-K1 cells stably expressing recombinant receptor were harvested and suspended in warm PBS to make a 300,000 cells/mL stock. This cell suspension was dispensed into 384 well assay plates (PerkinElmer ProxiPlate #6008280) at 5 μL per well (1500 cells/well) along with a cAMP standard curve.
Compounds were dissolved and serially diluted (5-fold) in DMSO to generate a 10-point dose response stock. […] After a brief incubation, 2.5 μL of isoproterenol stock, prepared at a concentration 4 times its EC90 at the receptor of interest, was added to the wells. The EC90 for isoproterenol, a beta-adrenergic agonist, was determined in separate experiments using standard methods to measure agonist potencies.
Following a 1-hour incubation at room temperature, 5 μL of cAMP-D2 Reagent diluted in Lysis Buffer was added to each well followed by 5 μL of Cryptate Reagent. Plates were further incubated at room temperature for 1 hour prior to reading. Time resolved fluorescence measurements were collected on a suitable, HTRF-capable plate reader.
Counts from the plate reader were fit to the cAMP standard curve on the assay plate in order to determine cAMP concentrations in each well, and these values were used to construct dose-response curves to obtain IC50 values.
For orientation: In TR-FRET formats the signal depends on donor and acceptor labels being close together.

[1] abbreviates: table of B compounds, CHO-K1 cells.

T1 sequence (P13945 whole entry, species assumed): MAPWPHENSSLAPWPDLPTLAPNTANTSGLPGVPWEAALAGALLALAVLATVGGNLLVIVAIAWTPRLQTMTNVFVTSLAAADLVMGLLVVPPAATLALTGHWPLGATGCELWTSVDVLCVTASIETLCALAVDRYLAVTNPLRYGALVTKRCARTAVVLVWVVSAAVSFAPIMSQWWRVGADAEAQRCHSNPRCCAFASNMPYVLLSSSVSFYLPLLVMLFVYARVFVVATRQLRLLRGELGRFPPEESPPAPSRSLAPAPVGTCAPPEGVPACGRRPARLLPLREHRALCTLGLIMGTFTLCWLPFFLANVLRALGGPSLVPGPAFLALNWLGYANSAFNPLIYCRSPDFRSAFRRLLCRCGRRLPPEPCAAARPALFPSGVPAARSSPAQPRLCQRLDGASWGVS

For the compound `CNS(=O)(=O)c1cccc(OC[C@@H](O)CN[C@H]2COC3(CCN(S(=O)(=O)c4cncc(-c5ccc(CN)cc5)c4)CC3)C2)c1` [Compound B375, 3-((S)-3-((R)-8-(5-(4-(aminomethyl)phenyl)pyridin-3-ylsulfonyl)-1-oxa-8-azaspiro[4.5]decan-3-ylamino)-2-hydroxypropoxy)-N-methylbenzenesulfonamide], under setting [1], half-maximal inhibition (IC50) required 0.0254 µM. In turn, `CNS(=O)(=O)c1cccc(OC[C@@H](O)CN[C@H]2COC3(CCN(c4nccc(C(=O)O)n4)CC3)C2)c1` [Compound B582, 2-((R)-3-((S)-2-hydroxy-3-(3-(N-methylsulfamoyl)phenoxy)propylamino)-1-oxa-8-azaspiro[4.5]decan-8-yl)pyrimidine-4-carboxylic acid] came in with an IC50 (table of B compounds, cells in μM, CHO-K1 cells) of no less than 100 µM. Turning to `O=S(=O)(c1cccc(OC[C@@H](O)CN[C@H]2COC3(CCN(S(=O)(=O)c4cnc5cc[nH]c5c4)CC3)C2)c1)C1CC1` [Compound A309, (S)-1-((R)-8-(1H-pyrrolo[3,2-b]pyridin-6-ylsulfonyl)-1-oxa-8-azaspiro[4.5]decan-3-ylamino)-3-(3-(cyclopropylsulfonyl)phenoxy)propan-2-ol], under “table of A compounds, CHO-K1 cells stably expressing recombinant receptor”, the IC50 came out at 0.007 µM.

In turn, `CN1CCOc2ncc(S(=O)(=O)N3CCC4(CC3)C[C@@H](NC[C@H](O)COc3cccc(S(=O)(=O)N[C@@H]5CCC[C@@H]5O)c3)CO4)cc21` [Compound B437, 3-((S)-2-hydroxy-3-((R)-8-(1-methyl-2,3-dihydro-1H-pyrido[2,3-b][1,4]oxazin-7-ylsulfonyl)-1-oxa-8-azaspiro[4.5]decan-3-ylamino)propoxy)-N-((1R,2S)-2-hydroxycyclopentyl)benzenesulfonamide] came in with an IC50 under setting [1] of 0.472 µM.
